Structures can show the parent of a compound that is named as a salt.
How the values were obtained:
[1] = Anti-inflammatory activity in in vivo animal testing
[2] = Antihypertensive properties in in vivo animal testing
[3] = test system: renal and mesenteric blood flow; test: Renal and mesenteric blood flow in anesthetized dogs; type: in vivo, dog
[4] = test system: isolated cat papillary muscle; test: Positive inotropic effect: % change in contractile force in isolated cat papillary muscle
[5] = test system: intact anesthetized dog (myocardial contractility); test: In vivo positive inotropic effect (dP/dT max) in the intact anesthetized dog; conditions: i.v. infusion 1 mg/kg per min
Description: (§1) The measurement dP/dT max was used as the index of change in myocardial contractility (inotropism). Compound 12 was given as an intravenous infusion at the rate of 1 mg/kg per min. in total single doses of 1.0 to 10.0 mg/kg and the values are expresses as percent of control.
In Vivo Positive Inotropic Effect
Measurement of myocardial contractility (inotropism)
using dP/dT max (% of control) as index of measurement of inotropic

unanesthetized dogs = test: Inotropic effect in unanesthetized dogs; type: in vivo, dog; conditions: compared with anesthetized dogs
Description: as §1

For `CC(=O)O[C@@H]1[C@@H]2OP(=O)(O)OC[C@H]2O[C@H]1n1c(Sc2ccc(Cl)cc2)nc2c(Cl)ncnc21` [Compound 33, 2'-O-Acetyl-6-chloro-8-(p-chlorophenylthio)-9-β-D-ribofuranosylpurine 3',5'-Cyclic Phosphate Sodium Salt], the anti-inflammatory activity [1] was “displayed anti-inflammatory activity” and the antihypertensive properties [2] was “displayed antihypertensive properties”.
With “8-(Benzylthio)-6-(diethylamino)-9-β-D-ribofuranosylpurine 3',5'-CyclicPhosphate [Compound 12]” the mesenteric blood flow [3] was “increase in renal and mesenteric blood flow”, the renal blood flow [3] was “increase in renal and mesenteric blood flow” and the “% change in Contractile Force (CF)” value ([4]; 1.0 μg/ml) was 3.8%. For the same compound, the “% change in Contractile Force (CF)” value ([4]; 3.1 μg/ml) was 8.0%, the “% change in Contractile Force (CF)” value ([4]; 10.0 μg/ml) was 12.7% and the “% change in Contractile Force (CF)” value ([4]; 31.0 μg/ml) was 27.0%. For the same compound, the “% change in Contractile Force (CF)” value ([4]; 100 μg/ml) was 46.0%, the “% change in Contractile Force (CF)” value ([4]; 310 μg/ml) was 56.0% and the positive inotropic effect ([4]; statement in words, isolated cat papillary muscle) was “exhibit positive inotropic effect”. The “dP/dT max (% of control)” value ([5]; 1.0 mg/kg, 1 minute after infusion) was 120%, the “dP/dT max (% of control)” value ([5]; 1.0 mg/kg, 3 minutes after infusion) was 120% and the “dP/dT max (% of control)” value ([5]; 1.0 mg/kg, 5 minutes after infusion) was 130%. The “dP/dT max (% of control)” value ([5]; 1.0 mg/kg, 15 minutes after infusion) was 110%, the “dP/dT max (% of control)” value ([5]; 3.1 mg/kg, 1 minute after infusion) was 200% and the “dP/dT max (% of control)” value ([5]; 3.1 mg/kg, 3 minutes after infusion) was 180%. The “dP/dT max (% of control)” value ([5]; 3.1 mg/kg, 5 minutes after infusion) was 160%, the “dP/dT max (% of control)” value ([5]; 3.1 mg/kg, 15 minutes after infusion) was 140% and the “dP/dT max (% of control)” value ([5]; 3.1 mg/kg, 30 minutes after infusion) was 105%. For the same compound, the “dP/dT max (% of control)” value ([5]; 10.0 mg/kg, 1 minute after infusion) was 210%, the “dP/dT max (% of control)” value ([5]; 10.0 mg/kg, 3 minutes after infusion) was 200% and the “dP/dT max (% of control)” value ([5]; 10.0 mg/kg, 5 minutes after infusion) was 180%. The “dP/dT max (% of control)” value ([5]; 10.0 mg/kg, 15 minutes after infusion) was 140%, the “dP/dT max (% of control)” value ([5]; 10.0 mg/kg, 30 minutes after infusion) was 100% and the “inotropic effect in unanesthetized dogs” value (unanesthetized dogs) was “same inotropic effect”.

Reference: US4058659A, “6,8-Disubstituted purine derivatives of 9-β-D-ribofuranosyl 3',5'-cyclic phosphate” (ICN Pharmaceuticals, Inc., priority 1975, dated 1977)
